The values that follow come from patent US6369083B1, “2-methoxyimino-2 (pyrinyloxymethyl) phenyl acetamides with polyether derivatives on the pyridine ring” (Dow AgroSciences LLC, priority 1998, dated 2002).

What all share (format): in vivo
In one experiment the test system is Erysiphe graminis. Nature of the experiment: Powdery Mildew of Wheat (ERYSGT). The note with it: wheat (cultivar Monon), inoculated, sprayed at 25 ppm after 48 hours. Here is the method: Compound Formulation: […] Final treatment volumes were obtained by adding nine volumes 0.05kOO aqueous Tween-20 or Triton X-100, depending upon the pathogen. Powdery Mildew of Wheat (Erysiphe graminis-[…]): Wheat (cultivar Monon) was grown in a soilless peat-based potting mixture (Metromix) until the seedlings were 1-2 leaf (BBCH 12). These plants were then inoculated with Erysiphe graminis by dusting spores from stock plants onto the test plants. After 48 hours the plants were sprayed to run off with the test compound at a rate of 25 ppm and then kept in the greenhouse until disease developed on the untreated control plants. The following table presents the activity of typical compounds of the present invention when evaluated in these experiments. The effectiveness of the test compounds in controlling disease was rated using the following scale: […]

For another experiment, the system named is Plasmopara viticola. Put plainly: Downy Mildew of Grape (PLASVI), 96 hour protectant. The note with it: grape vines (cultivar Carignane), sprayed at 100 ppm, inoculated after 96 hours (protectant). Here is the method:
Compound Formulation: […] Final treatment volumes were obtained by adding nine volumes 0.05kOO aqueous Tween-20 or Triton X-100, depending upon the pathogen. Downy Mildew of Grape (Plasmogara viticola-[…]) (96 Hour Protectant): Vines (cultivar Carignane) were grown from seed in a soilless peat-based potting mixture (Metromix) until the seedlings were 10-20 cm tall. These plants were then sprayed to run off with the test compound at a rate of 100 ppm. After 96 hours the test plants were inoculated by spraying with an aqueous sporangia suspension of Plasmopara viticola. The plants were then transferred to the greenhouse until disease developed on the untreated control plants. The following table presents the activity of typical compounds of the present invention when evaluated in these experiments. The effectiveness of the test compounds in controlling disease was rated using the following scale: […]

The next experiment has as its system Puccinia recondita. Nature of the experiment: Brown rust (PUCCRT). The note with it: wheat (cultivar Monon), sprayed at 100 ppm, inoculated after 24 hours. Here is the method:
(§1) Compound Formulation: […] Final treatment volumes were obtained by adding nine volumes 0.05kOO aqueous Tween-20 or Triton X-100, depending upon the pathogen. Glume blotch of wheat (Leptosphaeria nodorum-[…]): Wheat (cultivar Monon) was grown from seed in a soilless peat-based potting mixture (Metromix) until the seedlings were 1-2 leaf (BBCH 12). These plants were then sprayed to run off with the test compound at a rate of 100 ppm. After 24 hours the test plants were inoculated with an aqueous spore suspension of Leptosphaeria nodorum. The plants were then transferred to the greenhouse until disease developed on the untreated control plants. Brown rust (Puccinia recondita-PUCCRT): Wheat (cultivar Monon) was grown from seed in a soilless peat-based potting mixture (Metromix) until the seedlings were 1-2 leaf (BBCH 12). These plants were then sprayed to run off with the test compound at a rate of 100 ppm. After 24 hours the test plants were inoculated with an aqueous spore suspension of Puccinia recondita. The plants were then transferred to the greenhouse until disease developed on the untreated control plants. The following table presents the activity of typical compounds of the present invention when evaluated in these experiments. The effectiveness of the test compounds in controlling disease was rated using the following scale: […]

The next experiment concerns Leptosphaeria nodorum. Nature of the experiment: Glume blotch of wheat (LEPTNO). The note with it: wheat (cultivar Monon), sprayed at 100 ppm, inoculated after 24 hours. Here is the method: as §1

SMILES strings stand for the structures.

For `CNC(=O)C(=NOC)c1ccccc1COc1cccc(OCC2COC(C)(C)O2)n1` (stereo not drawn) [Compound 2, Benzeneacetamide, 2-[[[6-((2,2-dimethyl-1,3-dioxolanyl)-4-methoxy)-2-pyridinyl]oxy]methy]-α-(methoxyimino)-N-methyl-], the “ERYSGT control of plant disease” value with Erysiphe graminis was “+ (+ = 25-74% control of plant disease)”. In addition, the “PLASVI control of plant disease” value with Plasmopara viticola is recorded as “++ (++ = 75-100 % control of plant disease)”. Further, the “PUCCRT control of plant disease” value in the experiment with Puccinia recondita is given as “++ (++ = 75-100 % control of plant disease)”. For the same compound, the “LEPTNO control of plant disease” value with Leptosphaeria nodorum is listed as “++ (++ = 75-100 % control of plant disease)”.

In the case of `CCCOCCCOc1cccc(OCc2ccccc2C(=NOC)C(=O)NC)n1` [Compound 89], the “ERYSGT control of plant disease” value in the experiment with Erysiphe graminis was “+ (+ = 25-74% control of plant disease)”. The “PLASVI control of plant disease” value in the experiment with Plasmopara viticola is “− (− = 0-24% control of plant disease)”. The “LEPTNO control of plant disease” value in the experiment on Leptosphaeria nodorum is “− (− = 0-24% control of plant disease)”.

On to `CNC(=O)C(=NOC)c1ccccc1COc1cccc(SCCSC(C)(C)C)n1` [Compound 52], for which the “ERYSGT control of plant disease” value in the experiment with Erysiphe graminis was “++ (++ = 75-100 % control of plant disease)”. Moreover, the “PLASVI control of plant disease” value with Plasmopara viticola is “++ (++ = 75-100 % control of plant disease)”. For the same compound, the “LEPTNO control of plant disease” value in the experiment with Leptosphaeria nodorum is recorded as “+ (+ = 25-74% control of plant disease)”.

On to `CNC(=O)C(=NOC)c1ccccc1COc1nc(OCC2COC(C)(C)O2)c(Cl)cc1Cl` (centres unmarked) [Compound 1], for which the “ERYSGT control of plant disease” value with Erysiphe graminis is recorded as “+ (+ = 25-74% control of plant disease)”. Also, in the experiment on Plasmopara viticola, the “PLASVI control of plant disease” value is given as “++ (++ = 75-100 % control of plant disease)”. The “PUCCRT control of plant disease” value in the experiment on Puccinia recondita is listed as “++ (++ = 75-100 % control of plant disease)”. In addition, the “LEPTNO control of plant disease” value in the experiment on Leptosphaeria nodorum is given as “++ (++ = 75-100 % control of plant disease)”.

`CNC(=O)C(=NOC)c1ccccc1COc1cccc(OCCOC(C)C)n1` [Compound 53]: in the experiment on Erysiphe graminis, the “ERYSGT control of plant disease” value is listed as “++ (++ = 75-100 % control of plant disease)”. For the same compound, the “PLASVI control of plant disease” value with Plasmopara viticola was “++ (++ = 75-100 % control of plant disease)”. In the experiment on Leptosphaeria nodorum, the “LEPTNO control of plant disease” value is given as “− (− = 0-24% control of plant disease)”.

As to `CCOCCOc1cccc(OCc2ccccc2C(=NOC)C(=O)NC)n1` [Compound 17], the “ERYSGT control of plant disease” value with Erysiphe graminis is recorded as “+ (+ = 25-74% control of plant disease)”. In addition, the “PLASVI control of plant disease” value in the experiment with Plasmopara viticola was “++ (++ = 75-100 % control of plant disease)”. In the experiment on Leptosphaeria nodorum, the “LEPTNO control of plant disease” value was “++ (++ = 75-100 % control of plant disease)”.

On to `CCOc1cccc2nc(Sc3cccc(OCc4ccccc4C(=NOC)C(=O)NC)n3)sc12` [Compound 13], for which the “ERYSGT control of plant disease” value in the experiment on Erysiphe graminis is “− (− = 0-24% control of plant disease)”. Further, in the experiment with Plasmopara viticola, the “PLASVI control of plant disease” value is “+ (+ = 25-74% control of plant disease)”. Further, the “LEPTNO control of plant disease” value with Leptosphaeria nodorum is given as “+ (+ = 25-74% control of plant disease)”.

In the case of `CCOCCOc1nc(OCc2ccccc2C(=NOC)C(=O)NC)c(Cl)cc1Cl` [Compound 18], in the experiment with Erysiphe graminis, the “ERYSGT control of plant disease” value was “+ (+ = 25-74% control of plant disease)”. In the experiment on Plasmopara viticola, the “PLASVI control of plant disease” value is listed as “++ (++ = 75-100 % control of plant disease)”. In addition, the “LEPTNO control of plant disease” value in the experiment on Leptosphaeria nodorum is on record as “++ (++ = 75-100 % control of plant disease)”.
